TGI data for 18 compounds are collected here from PubChem BioAssay (NCI).

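The compound was tested at five concentrations on cells cultured in 96-well plates, with a 48-hour exposure period. TGI: total growth inhibition.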

The first assay deals with SK-MEL-2 melanoma. As to the kind of experiment: DTP human tumour cell line panel, 48 h.
For the compound `C=CCC(CCC(C)=O)(C(=O)OCC)C(=O)OCC`, the TGI is more than 100 µM.

`CC(C)C(Cl)CCC(C)(Cl)C(=O)CBr` (centres undefined) registered a total growth inhibition concentration (TGI) of 21.9 µM.

Turning to `C1CSCCSCCCS[C@@H]2CCCCC2SC1` (some centres undefined), the TGI is more than 100 µM.

For `COC(=O)[C@H](Cc1ccccc1)NC(=O)c1ccc(CNC(=O)/C=C/c2csc(-c3ccccc3)n2)cc1`, the TGI is 9.1 µM.

On to `N#Cc1ccccc1OCCOc1ccccc1C#N`, for which the TGI is more than 100 µM.

With `CCOC(=O)c1cn(CC)c(=O)n2c1nc1ccccc12`, the TGI is more than 100 µM.

The compound `Cc1cccc2sc(NC(=O)NS(=O)(=O)n3cnc4ccccc43)nc12` came in with a TGI of 35.6 µM.

In the case of `NNc1nnc(CCCCCCCCc2nnc(NN)n2N)n1N`, the TGI is more than 100 µM.

As to `COc1ccc2nc3c(c(N)c2c1)C1CCC3C1(C)C` (centres undefined), the TGI amounted to 67.1 µM.

Consider `CCN1/C(=C/C#C/C(C)=C\c2sc3ccc(Cl)cc3[n+]2CC)Sc2ccc(Cl)cc21`, for which the TGI is 4.85 µM.

With `CC(=O)c1ccc(N=NN2CCCC2)cc1`, the TGI is more than 100 µM.

In the case of `CSC(=O)/C=C1\SS/C(=C\C(=O)SC)S1`, the TGI worked out at 4.93 µM.

Regarding `Cc1ccc(S[C@@](C=O)(NC(=O)OCc2ccccc2)C(F)(F)F)cc1`, the TGI turned out to be 60.8 µM.

The compound `O=C1CC(O)c2cscc21` (centres undefined) gave a TGI of more than 100 µM.

In turn, `Cc1cc(O)c(/C=N/C(N)=S)c(=O)o1` registered a TGI of more than 100 µM.

As to `Cc1ccc(OCC2OC(n3cnc4c(Cl)nc(Nc5cc(Cl)cc(Cl)c5)nc43)CC2Oc2ccc(C)cc2)cc1` (centres undefined), the TGI was more than 100 µM.

`O=c1c(-c2ccccc2)nnc2n(Cc3ccccc3)c3ccccc3n12` had a TGI of more than 100 µM.

`C=CCON(C(=O)OC(C)(C)C)C(C)(C)C` displayed a TGI of more than 100 µM.

The subject of a further assay is HT29 colon. As to the kind of experiment: DTP human tumour cell line panel, 48 h.
In turn, `C=CCC(CCC(C)=O)(C(=O)OCC)C(=O)OCC` showed a TGI of more than 100 µM.

For the compound `CC(C)C(Cl)CCC(C)(Cl)C(=O)CBr` (centres undefined), the TGI is 11.6 µM.

Compound `C1CSCCSCCCS[C@@H]2CCCCC2SC1` (some centres undefined) gave a TGI of more than 100 µM.

`COC(=O)[C@H](Cc1ccccc1)NC(=O)c1ccc(CNC(=O)/C=C/c2csc(-c3ccccc3)n2)cc1`: the TGI turned out to be 43.1 µM.

For `N#Cc1ccccc1OCCOc1ccccc1C#N`, the TGI was more than 100 µM.

Compound `CCOC(=O)c1cn(CC)c(=O)n2c1nc1ccccc12` showed a TGI of more than 100 µM.

In the case of `Cc1cccc2sc(NC(=O)NS(=O)(=O)n3cnc4ccccc43)nc12`, the TGI was more than 100 µM.

The compound `NNc1nnc(CCCCCCCCc2nnc(NN)n2N)n1N` returned a TGI of more than 100 µM.

On to `COc1ccc2nc3c(c(N)c2c1)C1CCC3C1(C)C` (centres undefined), for which the TGI is more than 100 µM.

For `CCN1/C(=C/C#C/C(C)=C\c2sc3ccc(Cl)cc3[n+]2CC)Sc2ccc(Cl)cc21`, the TGI was determined as 14 µM.

With `CSC(=O)/C=C1\SS/C(=C\C(=O)SC)S1`, the TGI was determined as 7.03 µM.

The compound `Cc1ccc(S[C@@](C=O)(NC(=O)OCc2ccccc2)C(F)(F)F)cc1` gave a total growth inhibition concentration (TGI) of 37.9 µM.

For `O=C1CC(O)c2cscc21` (centres undefined), the TGI was more than 100 µM.

`Cc1ccc(OCC2OC(n3cnc4c(Cl)nc(Nc5cc(Cl)cc(Cl)c5)nc43)CC2Oc2ccc(C)cc2)cc1` (centres undefined) showed a TGI of more than 100 µM.

Regarding `O=c1c(-c2ccccc2)nnc2n(Cc3ccccc3)c3ccccc3n12`, the total growth inhibition concentration (TGI) was more than 100 µM.

Consider `C=CCON(C(=O)OC(C)(C)C)C(C)(C)C`, for which the TGI is more than 100 µM.

Another assay deals with CCRF-CEM leukemia. The assay can be described thus: DTP human tumour cell line panel, 48 h.
`C=CCC(CCC(C)=O)(C(=O)OCC)C(=O)OCC` returned a TGI of more than 100 µM.

Compound `CC(C)C(Cl)CCC(C)(Cl)C(=O)CBr` (centres undefined) displayed a total growth inhibition concentration (TGI) of more than 100 µM.

`C1CSCCSCCCS[C@@H]2CCCCC2SC1` (some centres undefined) returned a TGI of 88.7 µM.

In the case of `COC(=O)[C@H](Cc1ccccc1)NC(=O)c1ccc(CNC(=O)/C=C/c2csc(-c3ccccc3)n2)cc1`, the TGI is more than 100 µM.

`N#Cc1ccccc1OCCOc1ccccc1C#N` had a TGI of more than 100 µM.

`CCOC(=O)c1cn(CC)c(=O)n2c1nc1ccccc12` displayed a TGI of more than 100 µM.

Consider `Cc1cccc2sc(NC(=O)NS(=O)(=O)n3cnc4ccccc43)nc12`, for which the TGI is more than 100 µM.

In the case of `NNc1nnc(CCCCCCCCc2nnc(NN)n2N)n1N`, the TGI is more than 100 µM.

In turn, `COc1ccc2nc3c(c(N)c2c1)C1CCC3C1(C)C` (centres undefined) had a TGI of 98.4 µM.

The compound `CCN1/C(=C/C#C/C(C)=C\c2sc3ccc(Cl)cc3[n+]2CC)Sc2ccc(Cl)cc21` had a TGI of more than 100 µM.

For the compound `CC(=O)c1ccc(N=NN2CCCC2)cc1`, the TGI was more than 100 µM.

For the compound `CSC(=O)/C=C1\SS/C(=C\C(=O)SC)S1`, the TGI is more than 100 µM.

In the case of `Cc1ccc(S[C@@](C=O)(NC(=O)OCc2ccccc2)C(F)(F)F)cc1`, the TGI amounted to 52.3 µM.

As for `O=C1CC(O)c2cscc21` (centres undefined), the TGI was 45.8 µM.

As for `Cc1cc(O)c(/C=N/C(N)=S)c(=O)o1`, the TGI was 84.4 µM.

`Cc1ccc(OCC2OC(n3cnc4c(Cl)nc(Nc5cc(Cl)cc(Cl)c5)nc43)CC2Oc2ccc(C)cc2)cc1` (centres undefined): the TGI was more than 100 µM.

With `O=c1c(-c2ccccc2)nnc2n(Cc3ccccc3)c3ccccc3n12`, the TGI is more than 100 µM.

On to `C=CCON(C(=O)OC(C)(C)C)C(C)(C)C`, for which the TGI is more than 100 µM.

A further assay relates to ACHN renal. The assay can be described thus: DTP human tumour cell line panel, 48 h.
Take `C=CCC(CCC(C)=O)(C(=O)OCC)C(=O)OCC`: the TGI is more than 100 µM.

For `CC(C)C(Cl)CCC(C)(Cl)C(=O)CBr` (centres undefined), the TGI stood at 19.3 µM.

Compound `C1CSCCSCCCS[C@@H]2CCCCC2SC1` (some centres undefined) registered a TGI of more than 100 µM.

In turn, `COC(=O)[C@H](Cc1ccccc1)NC(=O)c1ccc(CNC(=O)/C=C/c2csc(-c3ccccc3)n2)cc1` had a TGI of 44 µM.

`N#Cc1ccccc1OCCOc1ccccc1C#N` had a total growth inhibition concentration (TGI) of more than 100 µM.

In turn, `CCOC(=O)c1cn(CC)c(=O)n2c1nc1ccccc12` came in with a TGI of more than 100 µM.

Compound `Cc1cccc2sc(NC(=O)NS(=O)(=O)n3cnc4ccccc43)nc12` displayed a TGI of more than 100 µM.

Consider `NNc1nnc(CCCCCCCCc2nnc(NN)n2N)n1N`, for which the TGI is more than 100 µM.

With `COc1ccc2nc3c(c(N)c2c1)C1CCC3C1(C)C` (centres undefined), the TGI is more than 100 µM.

Take `CCN1/C(=C/C#C/C(C)=C\c2sc3ccc(Cl)cc3[n+]2CC)Sc2ccc(Cl)cc21`: the TGI was 14.8 µM.

Compound `CC(=O)c1ccc(N=NN2CCCC2)cc1` came in with a TGI of more than 100 µM.

Compound `CSC(=O)/C=C1\SS/C(=C\C(=O)SC)S1` yielded a TGI of 10.2 µM.

`O=C1CC(O)c2cscc21` (centres undefined): the TGI is more than 100 µM.

Regarding `Cc1cc(O)c(/C=N/C(N)=S)c(=O)o1`, the TGI is more than 100 µM.

Consider `Cc1ccc(OCC2OC(n3cnc4c(Cl)nc(Nc5cc(Cl)cc(Cl)c5)nc43)CC2Oc2ccc(C)cc2)cc1` (centres undefined), for which the TGI is more than 100 µM.

`O=c1c(-c2ccccc2)nnc2n(Cc3ccccc3)c3ccccc3n12`: the TGI is more than 100 µM.

On to `C=CCON(C(=O)OC(C)(C)C)C(C)(C)C`, for which the concentration for total growth inhibition (TGI) is more than 100 µM.
